pIC50: −log10 of the molar value.
Legend:
Format in all cases: biochemical
[1] = biological target: T1, Human PDE7B (hPDE7B) (Homo sapiens, UniProt Q9NP56); assay: Measurement of PDE7 inhibitory activity (Experimental Example 1; residual cAMP, LANCE Ultra cAMP TR-FRET); details: cAMP 3 nmol/L, room temperature 60 minutes
T1 construct: made in house; host or cells: COS-7 cells
Outline: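 hPDE7B from transfected COS-7 cells reacted with 3 nmol/L cAMP (final) and compound (2% DMSO) in 50 mmol/L Tris-HCl pH 7.5, 1 mmol/L MgCl2, 0.1% BSA, 0.5 mmol/L DTT, 60 min at room temperature. Reaction stopped with IBMX; residual cAMP measured by TR-FRET. Inhibition scaled between no-compound and no-enzyme controls.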

[2] = biological target: T2, hPDE4D (Homo sapiens, UniProt Q08499); assay: PDE4 inhibition assay (IC50), Experimental Example 3; details: for pIC50: hPDE4D, read-out: PDE inhibition assay IC50, PDE4; for inhibition at 10 µM: at 10 μmol/L, read-out: inhibition rate (%) at prescribed concentration, PDE4
T2 construct: purchased SB Drug Discovery
Protocol: (§1) PDE7 inhibitory assay was carried out by reacting the mixture of a compound, hPDE7B, and cAMP, and measuring the residual cAMP by a detection method using LANCE (registered trademark) Ultra cAMP Detection Kit (ParkinElmer). The compound was dissolved in DMSO, and diluted so that the concentration would become 50 times of the final concentration. The hPDE7B and cAMP were diluted with an assay buffer (50 mmol/L Tris-HCl, 1 mmol/L MgCl2, 0.1% BSA, 0.5 mmol/L DTT, pH7.5) so that the hPDE7B would have an appropriate enzyme activity and the concentration of cAMP would become 6 nmol/L. To a 96 well plate were added the compound (2 μL) (DMSO final concentration: 2%), hPDE7B (48 μL), and cAMP (50 μL) (concentration at the reaction: 3 nmol/L), and the resulting mixture was reacted at room temperature for 60 minutes. The reaction solution (20 μL) was subjected to a TR-FRET method according to the protocol specified by the kit to measure the concentration of the residual cAMP. In the assay, to a tracer solution specified by the kit was added 0.5 mmol/L of 3-isobutyl-1-methylxanthine (IBMX, nonselective PDE inhibitor) in order to stop the PDE enzyme reaction after the completion of reaction until the measurement.
(§2) The prediction of PDE7 selectivity was evaluated by comparing each IC50 value of a compound against PDE4, 8, and 10 with the IC50 value of said compound against PDE7B.
(§3) hPDE4D, hPDE8B, and hPDE10A were prepared by the same method as [Method for preparing samples 2].
(§4) PDE4, 8, and 10 inhibitory assays were carried out by the same method as [Assay procedure 1].
(§5) The reaction without a compound wad defined as “0% inhibition”, the reaction without each PDE was defined as “100% inhibition”, and the calculation of IC50 value was carried out by the same method as <Method for data calculation 1>.

[3] = biological target: T3, hPDE8B (Homo sapiens, UniProt O95263); assay: PDE8 inhibition assay (IC50), Experimental Example 3; details: for pIC50: hPDE8B, read-out: PDE inhibition assay IC50, PDE8; for inhibition at 10 µM: at 10 μmol/L
T3 construct: purchased SB Drug Discovery
Protocol: as §1, §2, §3, §4, §5

[4] = biological target: hPDE10A (Homo sapiens, UniProt Q9Y233); assay: PDE10 inhibition assay (IC50), Experimental Example 3; details: for pIC50: hPDE10A, read-out: PDE inhibition assay IC50, PDE10; for inhibition at 10 µM: at 10 μmol/L, read-out: inhibition rate (%) at prescribed concentration, PDE10
Protocol: as §1, §2, §3, §4, §5

[5] = read-out: inhibition rate (%) at prescribed concentration, PDE8

T2 sequence (Q08499 whole entry): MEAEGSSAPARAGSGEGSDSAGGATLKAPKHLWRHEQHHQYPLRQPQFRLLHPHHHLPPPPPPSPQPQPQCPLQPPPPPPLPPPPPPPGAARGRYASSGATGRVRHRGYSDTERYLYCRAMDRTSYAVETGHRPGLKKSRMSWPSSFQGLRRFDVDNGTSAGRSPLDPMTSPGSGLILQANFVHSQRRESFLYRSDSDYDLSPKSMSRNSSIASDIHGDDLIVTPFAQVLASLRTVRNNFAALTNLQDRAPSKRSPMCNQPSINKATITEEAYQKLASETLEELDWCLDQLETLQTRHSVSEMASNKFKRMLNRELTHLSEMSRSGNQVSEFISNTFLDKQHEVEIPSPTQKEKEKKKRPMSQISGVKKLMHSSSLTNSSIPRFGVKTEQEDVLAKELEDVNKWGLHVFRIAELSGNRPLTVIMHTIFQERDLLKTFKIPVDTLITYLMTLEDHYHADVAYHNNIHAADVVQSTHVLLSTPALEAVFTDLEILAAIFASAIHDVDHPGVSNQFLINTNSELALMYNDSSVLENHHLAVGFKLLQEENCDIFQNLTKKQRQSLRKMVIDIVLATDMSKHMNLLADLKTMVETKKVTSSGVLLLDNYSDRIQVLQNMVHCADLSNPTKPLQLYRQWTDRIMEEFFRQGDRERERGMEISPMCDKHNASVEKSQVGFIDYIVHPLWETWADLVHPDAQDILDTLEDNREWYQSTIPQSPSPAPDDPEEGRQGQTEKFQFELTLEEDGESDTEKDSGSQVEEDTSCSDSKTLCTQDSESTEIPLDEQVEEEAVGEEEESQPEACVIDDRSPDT
T1 sequence (Q9NP56 whole entry): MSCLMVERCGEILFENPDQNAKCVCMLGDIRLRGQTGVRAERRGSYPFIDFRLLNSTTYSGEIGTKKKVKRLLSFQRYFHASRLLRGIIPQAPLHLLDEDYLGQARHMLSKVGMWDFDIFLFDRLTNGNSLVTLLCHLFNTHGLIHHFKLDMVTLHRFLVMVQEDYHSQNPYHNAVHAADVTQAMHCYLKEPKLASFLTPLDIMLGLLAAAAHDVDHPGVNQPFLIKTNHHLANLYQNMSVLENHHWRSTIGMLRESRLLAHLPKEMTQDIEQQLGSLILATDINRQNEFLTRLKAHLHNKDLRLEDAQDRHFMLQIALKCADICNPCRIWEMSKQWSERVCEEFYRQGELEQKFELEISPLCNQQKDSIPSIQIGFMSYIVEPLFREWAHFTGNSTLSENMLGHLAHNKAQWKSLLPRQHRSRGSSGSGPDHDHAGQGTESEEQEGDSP
Chain of hPDE10A (Q9Y233 290-1055 limits assumed): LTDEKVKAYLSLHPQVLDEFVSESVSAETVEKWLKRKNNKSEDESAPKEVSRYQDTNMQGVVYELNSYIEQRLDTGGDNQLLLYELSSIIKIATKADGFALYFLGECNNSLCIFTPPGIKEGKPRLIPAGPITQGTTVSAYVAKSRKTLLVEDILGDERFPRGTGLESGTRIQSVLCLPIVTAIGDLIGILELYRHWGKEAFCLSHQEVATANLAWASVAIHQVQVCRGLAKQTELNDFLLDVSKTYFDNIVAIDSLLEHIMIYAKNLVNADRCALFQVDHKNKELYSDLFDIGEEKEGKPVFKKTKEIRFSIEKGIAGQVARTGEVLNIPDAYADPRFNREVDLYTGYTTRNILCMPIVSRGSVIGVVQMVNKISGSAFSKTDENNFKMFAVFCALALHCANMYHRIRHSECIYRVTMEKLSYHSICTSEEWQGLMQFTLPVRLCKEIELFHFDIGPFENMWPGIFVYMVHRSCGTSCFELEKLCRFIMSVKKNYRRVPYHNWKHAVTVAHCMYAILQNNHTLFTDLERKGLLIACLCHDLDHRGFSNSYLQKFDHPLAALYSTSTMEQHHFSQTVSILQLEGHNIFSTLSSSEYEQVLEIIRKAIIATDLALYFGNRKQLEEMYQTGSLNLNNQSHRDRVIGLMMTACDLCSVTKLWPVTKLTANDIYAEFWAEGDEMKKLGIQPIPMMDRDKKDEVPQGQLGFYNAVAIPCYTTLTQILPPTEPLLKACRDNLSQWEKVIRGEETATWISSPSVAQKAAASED
T3 sequence (O95263 whole entry): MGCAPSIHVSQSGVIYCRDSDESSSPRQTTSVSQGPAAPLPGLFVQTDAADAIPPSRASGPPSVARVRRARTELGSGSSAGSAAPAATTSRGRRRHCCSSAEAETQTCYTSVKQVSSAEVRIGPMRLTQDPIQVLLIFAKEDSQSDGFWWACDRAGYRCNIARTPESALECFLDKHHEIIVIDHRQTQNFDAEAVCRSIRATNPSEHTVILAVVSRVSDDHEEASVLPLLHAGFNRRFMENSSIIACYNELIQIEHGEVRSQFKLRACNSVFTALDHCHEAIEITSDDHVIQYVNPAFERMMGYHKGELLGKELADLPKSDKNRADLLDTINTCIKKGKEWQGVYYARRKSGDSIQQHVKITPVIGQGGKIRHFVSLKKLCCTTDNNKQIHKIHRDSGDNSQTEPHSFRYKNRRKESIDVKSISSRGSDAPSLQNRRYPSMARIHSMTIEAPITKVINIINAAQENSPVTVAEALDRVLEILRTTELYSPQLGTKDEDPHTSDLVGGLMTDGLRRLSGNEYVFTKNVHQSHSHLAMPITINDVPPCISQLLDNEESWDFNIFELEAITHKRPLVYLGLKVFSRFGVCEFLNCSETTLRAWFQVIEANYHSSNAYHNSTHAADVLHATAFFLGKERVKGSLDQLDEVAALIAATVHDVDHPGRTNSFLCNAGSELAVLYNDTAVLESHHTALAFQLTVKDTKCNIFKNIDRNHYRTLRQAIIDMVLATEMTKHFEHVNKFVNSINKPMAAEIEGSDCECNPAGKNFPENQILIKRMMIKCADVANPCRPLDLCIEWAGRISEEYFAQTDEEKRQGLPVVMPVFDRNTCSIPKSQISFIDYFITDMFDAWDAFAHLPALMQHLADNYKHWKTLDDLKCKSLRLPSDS

SMILES: Nc1nccn2c(C3CCC4CC4C3)nnc12 (single isomer, unassigned) [Example 218, 3-(bicyclo[4.1.0]hept-3-yl) [1,2,4]triazolo[4,3-a]pyrazin-8-amine]
- pIC50 [1]: 7.10
- pIC50 [2]: 5.39
- pIC50 [3]: 5.59
- pIC50 [4]: 5.52

SMILES: CC1(C)CCCN(c2nnc3c(N)ncc(C4CC4)n23)C1 [Example 43, 5-cyclopropyl-3-(3,3-dimethylpiperidin-1-yl) [1,2,4]triazolo[4,3-a]pyrazin-8-amine]
- pIC50 [1]: 7.52
- pIC50 [2]: 5.66
- pIC50 [3]: 5.82
- pIC50 [4]: 5.63

SMILES: Nc1ncnc2c1nnn2C1CCCCC1(F)F (single isomer, unassigned) [Example 115, 3-(2,2-difluorocyclohexyl)-3H-[1,2,3]triazolo[4,5-d]pyrimidin-7-amine]
- pIC50 [1]: > 8.00
- pIC50 [2]: 4.92
- inhibition at 1 µM ([3]; at 1 μmol/L, read-out: inhibition rate (%) at prescribed concentration, PDE8): 52%
- pIC50 [4]: 4.91

SMILES: Nc1nccn2c(N3CCCC(C(F)(F)F)C3)nnc12 (stereo not shown) [Example 46]
- pIC50 [1]: 7.10
- pIC50 [2]: 4.24
- pIC50 [3]: 5.11
- pIC50 [4]: 4.46

SMILES: CC1CCCC(n2nnc3c(N)ncnc32)C1 (single isomer, unassigned) [Example 196, 3-(cis-3-methylcyclohexyl)-3H-[1,2,3]triazolo[4,5-d]pyrimidin-7-amine]
- pIC50 [1]: > 8.00
- pIC50 [2]: 5.60
- pIC50 [3]: 6.54
- inhibition at 10 µM [4]: 49%

SMILES: Nc1ncnc2c1nnn2C1CCCC(C(F)F)C1 (single isomer, unassigned) [Example 200]
- pIC50 [1]: 7.52
- pIC50 [2]: 6.27
- pIC50 [3]: 6.00
- pIC50 [4]: 4.78

SMILES: CC1(C)CCCC(c2nnc3c(N)nccn23)C1 (single isomer, unassigned) [Example 207, 3-(3,3-dimethylcyclohexyl) [1,2,4]triazolo[4,3-a]pyrazin-8-amine]
- pIC50 [1]: > 8.00
- pIC50 [2]: 4.98
- pIC50 [3]: 5.82
- pIC50 [4]: 4.99

SMILES: Nc1nccn2c(N3CCCCC34CC4)nnc12 [Example 38]
- pIC50 [1]: 7.10
- pIC50 [2]: 5.28
- pIC50 [3]: 5.56
- pIC50 [4]: 4.60

SMILES: Nc1cncn2c(C3CCCCC3)nnc12 [Example 189, 3-cyclohexyl[1,2,4]triazolo[4,3-c]pyrimidin-8-amine]
- pIC50 [1]: 6.33
- inhibition at 10 µM [2]: 22%
- inhibition at 10 µM [3, 5]: 24%
- inhibition at 10 µM [4]: 0.9%

SMILES: CC1CCC(F)(F)CC1c1nnc2c(N)nccn12 (stereo not shown) [Example 153]
- pIC50 [1]: 7.15
- pIC50 [2]: 4.45
- pIC50 [3]: 4.66
- pIC50 [4]: 4.73

SMILES: CC1CCCN(c2nnc3c(N)nccn23)C1C (single isomer, unassigned) [Example 57, 3-(2,3-dimethylpiperidin-1-yl) [1,2,4]triazolo[4,3-a]pyrazin-8-amine]
- pIC50 [1]: 7.30
- pIC50 [2]: 5.19
- pIC50 [3]: 5.00
- pIC50 [4]: 5.06

SMILES: CC1CCC(C)(C)CN1c1nnc2c(N)nccn12 (single isomer, unassigned) [Example 236, 3-(2,5,5-trimethylpiperidin-1-yl) [1,2,4]triazolo[4,3-a]pyrazin-8-amine]
- pIC50 [1]: 7.48
- pIC50 [2]: 7.44
- pIC50 [3]: 6.07
- pIC50 [4]: 6.80

SMILES: Nc1nccn2c(N3CCCC4(CC4)C3)nnc12 [Example 44]
- pIC50 [1]: 7.10
- pIC50 [2]: 5.11
- pIC50 [3]: 5.26
- pIC50 [4]: 4.62

SMILES: Cc1nn(C2CCCCC2)c2ncnc(N)c12 [Example 184]
- pIC50 [1]: 6.27
- inhibition at 10 µM [2]: 48%
- inhibition at 10 µM [3, 5]: 18%
- pIC50 [4]: 6.30

SMILES: Nc1nccn2c(C3CCCOC3)nnc12 (stereo not shown) [Example 169]
- pIC50 [1]: 7.05
- inhibition at 10 µM [2]: 33%
- pIC50 [3]: 5.76
- pIC50 [4]: 4.68

SMILES: Nc1nccn2c(C3CCCC(C(F)(F)F)C3)nnc12 (single isomer, unassigned) [Example 210, 3-[cis-3-(trifluoromethyl)cyclohexyl][1,2,4]triazolo[4,3-a]pyrazin-8-amine]
- pIC50 [1]: 7.89
- pIC50 [2]: 5.26
- pIC50 [3]: 5.41
- pIC50 [4]: 4.75

Source: patent US20190185479A1, “BICYCLIC NITROGENATED HETEROCYCLIC COMPOUND” (MITSUBISHI TANABE PHARMA CORPORATION, priority 2016, published 2019)
